For data set [1], the target named is T1, ATP-dependent translocase ABCB1 (Homo sapiens, UniProt P08183). Briefly: TP_TRANSPORTER: inhibition of Taxol transepithelial transport (basal to apical) in Caco-2 cells. It counts as functional, cell-based. (Passage across Caco-2 layers is used to estimate intestinal permeability.)
Data set [2] has as its target T1, ATP-dependent translocase ABCB1. Briefly: TP_TRANSPORTER: inhibition of Taxol transepithelial transport (basal to apical) (Taxol: 0.8 uM, Probenecid: 1000 u) in Caco-2 cells. It counts as functional, cell-based.

As a reminder, the Ki is the equilibrium dissociation constant of an inhibitor or competing ligand from its target.

T1 sequence (P08183 whole entry): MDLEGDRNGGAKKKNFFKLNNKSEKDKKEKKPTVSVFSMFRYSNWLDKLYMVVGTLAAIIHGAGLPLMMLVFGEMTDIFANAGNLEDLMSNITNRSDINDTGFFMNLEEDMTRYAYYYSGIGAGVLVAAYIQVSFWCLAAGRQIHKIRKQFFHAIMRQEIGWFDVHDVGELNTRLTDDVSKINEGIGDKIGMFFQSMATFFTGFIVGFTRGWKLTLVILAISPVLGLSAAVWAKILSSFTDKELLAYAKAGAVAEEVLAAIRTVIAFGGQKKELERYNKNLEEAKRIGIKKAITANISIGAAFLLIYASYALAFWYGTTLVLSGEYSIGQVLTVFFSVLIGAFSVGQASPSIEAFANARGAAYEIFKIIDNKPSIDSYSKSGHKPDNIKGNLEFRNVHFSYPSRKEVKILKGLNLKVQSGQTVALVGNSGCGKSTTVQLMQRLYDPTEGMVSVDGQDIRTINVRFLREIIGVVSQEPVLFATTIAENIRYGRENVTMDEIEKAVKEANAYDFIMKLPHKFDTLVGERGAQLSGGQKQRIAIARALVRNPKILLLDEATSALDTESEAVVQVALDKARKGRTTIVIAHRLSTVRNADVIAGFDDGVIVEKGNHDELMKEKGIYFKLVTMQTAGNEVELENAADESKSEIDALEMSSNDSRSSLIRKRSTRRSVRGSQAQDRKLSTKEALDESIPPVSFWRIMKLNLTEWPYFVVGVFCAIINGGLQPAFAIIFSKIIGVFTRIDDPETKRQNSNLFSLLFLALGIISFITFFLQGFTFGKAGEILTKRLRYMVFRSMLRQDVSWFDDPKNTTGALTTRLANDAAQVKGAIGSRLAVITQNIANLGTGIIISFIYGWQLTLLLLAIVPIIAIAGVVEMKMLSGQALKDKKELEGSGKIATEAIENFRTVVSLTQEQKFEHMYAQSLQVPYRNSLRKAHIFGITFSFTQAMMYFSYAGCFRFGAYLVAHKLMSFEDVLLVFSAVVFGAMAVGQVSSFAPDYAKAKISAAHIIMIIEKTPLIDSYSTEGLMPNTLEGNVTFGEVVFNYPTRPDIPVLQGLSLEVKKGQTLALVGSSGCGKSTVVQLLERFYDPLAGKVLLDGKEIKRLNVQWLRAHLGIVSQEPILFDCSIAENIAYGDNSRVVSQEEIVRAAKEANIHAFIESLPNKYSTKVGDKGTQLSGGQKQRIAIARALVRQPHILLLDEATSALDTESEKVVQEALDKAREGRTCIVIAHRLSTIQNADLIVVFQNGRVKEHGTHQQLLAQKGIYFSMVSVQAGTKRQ

In data set [1], `CCN(CC)C(=O)Nc1ccc(OCC(O)CNC(C)(C)C)c(C(C)=O)c1` (centres undefined) [CELIPROLOL] gave a Ki of 313 µM.
The same measure, in the same setting: for `COc1cccc2c1C(=O)c1c(O)c3c(c(O)c1C2=O)C[C@@](O)(C(C)=O)C[C@@H]3O[C@H]1C[C@H](N)[C@H](O)[C@H](C)O1` [DAUNORUBICIN] the value was 2.5 µM; for `COc1cccc2c1C(=O)c1c(O)c3c(c(O)c1C2=O)C[C@@](O)(C(=O)CO)C[C@@H]3O[C@H]1C[C@H](N)[C@H](O)[C@H](C)O1` [DOXORUBICIN], 8.5 µM.
As to `CCCN(CCC)S(=O)(=O)c1ccc(C(=O)O)cc1` [PROBENECID], the Activity entry in data set [2] is “is not an inhibitor [-]”.
